Test results reported in PubChem BioAssay (NCI).
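How tested: cells in 96-well plates exposed to compound for 48 hours at five concentrations. GI50: concentration for 50% inhibition of growth. TGI: concentration producing complete growth inhibition.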

Legend:
Assay in all cases: NCI-60 cell line screen, 48 h
EKVX NSCLC = test system: EKVX NSCLC
CCRF-CEM leukemia = test system: CCRF-CEM leukemia
CAKI-1 renal = test system: CAKI-1 renal
MDA-MB-468 breast = test system: MDA-MB-468 breast
OVCAR-5 ovarian = test system: OVCAR-5 ovarian
MCF7 breast = test system: MCF7 breast
A498 renal = test system: A498 renal
NCI-H460 lung = test system: NCI-H460 lung
HS 578T breast = test system: HS 578T breast
U251 CNS = test system: U251 CNS
SK-MEL-28 melanoma = test system: SK-MEL-28 melanoma
K-562 leukemia = test system: K-562 leukemia
SF-268 CNS = test system: SF-268 CNS
COLO 205 colon = test system: COLO 205 colon
IGROV1 ovarian = test system: IGROV1 ovarian
NCI-H226 lung = test system: NCI-H226 lung
HCC-2998 colon = test system: HCC-2998 colon
T-47D breast = test system: T-47D breast
M14 melanoma = test system: M14 melanoma
UACC-62 melanoma = test system: UACC-62 melanoma
KM12 colon = test system: KM12 colon
SK-MEL-5 melanoma = test system: SK-MEL-5 melanoma
UACC-257 melanoma = test system: UACC-257 melanoma
HL-60(TB) leukemia = test system: HL-60(TB) leukemia
NCI-H23 lung = test system: NCI-H23 lung
OVCAR-8 ovarian = test system: OVCAR-8 ovarian
NCI-H522 lung = test system: NCI-H522 lung
SK-OV-3 ovarian = test system: SK-OV-3 ovarian
HCT-116 colon = test system: HCT-116 colon
UO-31 renal = test system: UO-31 renal
DU-145 prostate = test system: DU-145 prostate
SN12C renal = test system: SN12C renal
SW-620 colon = test system: SW-620 colon
BT-549 breast = test system: BT-549 breast
HCT-15 colon = test system: HCT-15 colon
HOP-92 NSCLC = test system: HOP-92 NSCLC
OVCAR-4 ovarian = test system: OVCAR-4 ovarian
SK-MEL-2 melanoma = test system: SK-MEL-2 melanoma
MDA-MB-231 breast = test system: MDA-MB-231 breast
SF-539 CNS = test system: SF-539 CNS
LOX IMVI melanoma = test system: LOX IMVI melanoma
SNB-75 CNS = test system: SNB-75 CNS
MALME-3M melanoma = test system: MALME-3M melanoma
HT29 colon = test system: HT29 colon
A549 NSCLC = test system: A549 NSCLC
NCI/ADR-RES ovarian = test system: NCI/ADR-RES ovarian
TK-10 renal = test system: TK-10 renal
RXF 393 renal = test system: RXF 393 renal
SR leukemia = test system: SR leukemia
OVCAR-3 ovarian = test system: OVCAR-3 ovarian
RPMI-8226 leukemia = test system: RPMI-8226 leukemia
PC-3 prostate = test system: PC-3 prostate
786-0 renal = test system: 786-0 renal
MDA-MB-435 = test system: MDA-MB-435
HOP-62 NSCLC = test system: HOP-62 NSCLC
SNB-19 CNS = test system: SNB-19 CNS
MOLT-4 leukemia = test system: MOLT-4 leukemia
SF-295 CNS = test system: SF-295 CNS
ACHN renal = test system: ACHN renal

For `C=C1CCC2C3(C)COC(c4ccc(F)cc4)OC3CCC2(C)C1C/C=C1/C(=O)OCC1O` (configuration not stated), the GI50 (EKVX NSCLC) was 4.57 µM, the TGI (EKVX NSCLC) was 17.2 µM and the GI50 (CCRF-CEM leukemia) was 1.24 µM. For the same molecule, the TGI (CCRF-CEM leukemia) was 5.2 µM, the GI50 (CAKI-1 renal) was 3.06 µM and the TGI (CAKI-1 renal) was 11.5 µM. The GI50 (MDA-MB-468 breast) was 1.67 µM, the TGI (MDA-MB-468 breast) was 3.21 µM and the GI50 (OVCAR-5 ovarian) was 2.01 µM. It also gave a TGI (OVCAR-5 ovarian) of 4.9 µM, a GI50 (MCF7 breast) of 1.1 µM and a TGI (MCF7 breast) of 2.88 µM. It also gave a GI50 (A498 renal) of 13.7 µM, a TGI (A498 renal) of 27 µM and a GI50 (NCI-H460 lung) of 2.02 µM. For the same molecule, the TGI (NCI-H460 lung) was 5.48 µM, the GI50 (HS 578T breast) was 2.7 µM and the TGI (HS 578T breast) was 9.69 µM. The GI50 (U251 CNS) was 1.66 µM, the TGI (U251 CNS) was 3.09 µM and the GI50 (SK-MEL-28 melanoma) was 1.94 µM. It also gave a TGI (SK-MEL-28 melanoma) of 4.02 µM, a GI50 (K-562 leukemia) of 2.09 µM and a GI50 (SF-268 CNS) of 3.53 µM. It also gave a TGI (SF-268 CNS) of 14.4 µM, a GI50 (COLO 205 colon) of 1.86 µM and a TGI (COLO 205 colon) of 3.47 µM. The GI50 (IGROV1 ovarian) was 2.78 µM, the TGI (IGROV1 ovarian) was 10.1 µM and the GI50 (NCI-H226 lung) was 1.81 µM. For the same molecule, the TGI (NCI-H226 lung) was 3.58 µM, the GI50 (HCC-2998 colon) was 2.67 µM and the TGI (HCC-2998 colon) was 8.69 µM. For the same molecule, the GI50 (T-47D breast) was 2.14 µM, the TGI (T-47D breast) was 9.87 µM and the GI50 (M14 melanoma) was 2.2 µM. It also gave a TGI (M14 melanoma) of 5.92 µM, a GI50 (UACC-62 melanoma) of 1.94 µM and a TGI (UACC-62 melanoma) of 4.8 µM. The GI50 (KM12 colon) was 2.81 µM, the TGI (KM12 colon) was 7.72 µM and the GI50 (SK-MEL-5 melanoma) was 2.73 µM. The TGI (SK-MEL-5 melanoma) was 8.58 µM, the GI50 (UACC-257 melanoma) was 2.04 µM and the TGI (UACC-257 melanoma) was 5.28 µM. It also gave a GI50 (HL-60(TB) leukemia) of 1.74 µM, a TGI (HL-60(TB) leukemia) of 4.93 µM and a GI50 (NCI-H23 lung) of 3.08 µM. It also gave a TGI (NCI-H23 lung) of 11.5 µM, a GI50 (OVCAR-8 ovarian) of 1.54 µM and a TGI (OVCAR-8 ovarian) of 3.4 µM. The GI50 (NCI-H522 lung) was 1.45 µM, the TGI (NCI-H522 lung) was 2.91 µM and the GI50 (SK-OV-3 ovarian) was 14.4 µM. The TGI (SK-OV-3 ovarian) was 27.8 µM, the GI50 (HCT-116 colon) was 1.42 µM and the TGI (HCT-116 colon) was 2.74 µM. The GI50 (UO-31 renal) was 1.55 µM, the TGI (UO-31 renal) was 3.67 µM and the GI50 (DU-145 prostate) was 3.86 µM. For the same molecule, the TGI (DU-145 prostate) was 13.8 µM, the GI50 (SN12C renal) was 1.48 µM and the TGI (SN12C renal) was 3.18 µM. The GI50 (SW-620 colon) was 1.25 µM, the TGI (SW-620 colon) was 2.71 µM and the GI50 (BT-549 breast) was 1.65 µM. It also gave a TGI (BT-549 breast) of 3.19 µM, a GI50 (HCT-15 colon) of 1.41 µM and a TGI (HCT-15 colon) of 3.24 µM. The GI50 (HOP-92 NSCLC) was 2.17 µM, the TGI (HOP-92 NSCLC) was 6.46 µM and the GI50 (OVCAR-4 ovarian) was 2.11 µM. It also gave a TGI (OVCAR-4 ovarian) of 5.9 µM, a GI50 (SK-MEL-2 melanoma) of 1.89 µM and a TGI (SK-MEL-2 melanoma) of 3.89 µM. For the same molecule, the GI50 (MDA-MB-231 breast) was 1.92 µM, the TGI (MDA-MB-231 breast) was 4.03 µM and the GI50 (SF-539 CNS) was 1.76 µM. The TGI (SF-539 CNS) was 3.16 µM, the GI50 (LOX IMVI melanoma) was 1.5 µM and the TGI (LOX IMVI melanoma) was 2.83 µM. The GI50 (SNB-75 CNS) was 1.58 µM, the TGI (SNB-75 CNS) was 7.57 µM and the GI50 (MALME-3M melanoma) was 2.06 µM. For the same molecule, the TGI (MALME-3M melanoma) was 5.16 µM, the GI50 (HT29 colon) was 1.78 µM and the TGI (HT29 colon) was 3.85 µM. It also gave a GI50 (A549 NSCLC) of 3.07 µM, a TGI (A549 NSCLC) of 13.1 µM and a GI50 (NCI/ADR-RES ovarian) of 1.67 µM. The TGI (NCI/ADR-RES ovarian) was 3.55 µM, the GI50 (TK-10 renal) was 3.85 µM and the TGI (TK-10 renal) was 14.9 µM. The GI50 (RXF 393 renal) was 2.41 µM, the TGI (RXF 393 renal) was 6.54 µM and the GI50 (SR leukemia) was 2.44 µM. It also gave a TGI (SR leukemia) of 6.51 µM, a GI50 (OVCAR-3 ovarian) of 1.83 µM and a TGI (OVCAR-3 ovarian) of 3.6 µM. It also gave a GI50 (RPMI-8226 leukemia) of 1.83 µM, a TGI (RPMI-8226 leukemia) of 5.05 µM and a GI50 (PC-3 prostate) of 2.19 µM. For the same molecule, the TGI (PC-3 prostate) was 5.92 µM, the GI50 (786-0 renal) was 1.74 µM and the TGI (786-0 renal) was 3.15 µM. The GI50 (MDA-MB-435) was 1.84 µM, the TGI (MDA-MB-435) was 4.48 µM and the GI50 (HOP-62 NSCLC) was 10.7 µM. It also gave a TGI (HOP-62 NSCLC) of 22.9 µM, a GI50 (SNB-19 CNS) of 4.84 µM and a TGI (SNB-19 CNS) of 16.9 µM. The GI50 (MOLT-4 leukemia) was 2.79 µM, the TGI (MOLT-4 leukemia) was 8.13 µM and the GI50 (SF-295 CNS) was 1.87 µM. The TGI (SF-295 CNS) was 4.64 µM, the GI50 (ACHN renal) was 1.69 µM and the TGI (ACHN renal) was 3.06 µM.
